Data: ChEMBL document CHEMBL5247574, “Recent Progress on Bile Acid Receptor Modulators for Treatment of Metabolic Diseases” (J Med Chem, 2016)
≈ marks a conversion by molar mass, not a printed value.

Tests used:
[1] = molecular target: T1, Bile acid receptor (Homo sapiens, UniProt Q96RI1); experiment: Agonist activity at FXR (unknown origin)
T1 sequence (Q96RI1 whole entry): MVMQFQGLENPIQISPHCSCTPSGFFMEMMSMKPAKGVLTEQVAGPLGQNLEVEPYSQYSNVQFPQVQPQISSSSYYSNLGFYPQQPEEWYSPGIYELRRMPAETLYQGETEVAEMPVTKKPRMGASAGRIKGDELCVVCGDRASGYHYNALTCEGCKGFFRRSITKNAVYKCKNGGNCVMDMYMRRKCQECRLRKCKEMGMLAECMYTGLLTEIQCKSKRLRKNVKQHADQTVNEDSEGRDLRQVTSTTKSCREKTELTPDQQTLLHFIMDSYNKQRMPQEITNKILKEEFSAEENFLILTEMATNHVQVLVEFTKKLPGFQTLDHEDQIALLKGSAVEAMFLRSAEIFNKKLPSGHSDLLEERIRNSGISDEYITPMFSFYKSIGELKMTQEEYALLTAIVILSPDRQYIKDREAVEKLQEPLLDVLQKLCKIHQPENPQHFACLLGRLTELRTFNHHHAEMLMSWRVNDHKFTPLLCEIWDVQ

[2] = molecular target: T2, G-protein coupled bile acid receptor 1 (Rattus norvegicus) (UniProt Q80T02); experiment: Agonist activity at TGR5 in rat Primary intestinal cell assessed as stimulation of GLP-1 secretion incubated for 2 hrs by ELISA analysis relative to control; assay type: cell-based; conditions: filed as agonist
T2 sequence (whole entry): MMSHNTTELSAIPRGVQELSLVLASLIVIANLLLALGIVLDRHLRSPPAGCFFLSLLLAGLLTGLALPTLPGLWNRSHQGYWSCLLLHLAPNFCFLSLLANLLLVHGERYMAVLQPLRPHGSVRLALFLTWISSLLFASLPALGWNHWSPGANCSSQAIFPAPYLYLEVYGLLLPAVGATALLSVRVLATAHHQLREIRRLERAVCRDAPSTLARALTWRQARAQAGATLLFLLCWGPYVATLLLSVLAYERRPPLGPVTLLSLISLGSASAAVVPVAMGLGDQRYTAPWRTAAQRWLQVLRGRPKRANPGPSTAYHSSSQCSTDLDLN

[3] = molecular target: T3, G-protein coupled bile acid receptor 1 (Homo sapiens, UniProt Q8TDU6); experiment: Agonist activity at human TGR5 expressed in human HEK293 cells measured after 5.5 hrs by steady-glo luciferase assay; assay type: cell-based
T3 sequence (Q8TDU6 whole entry): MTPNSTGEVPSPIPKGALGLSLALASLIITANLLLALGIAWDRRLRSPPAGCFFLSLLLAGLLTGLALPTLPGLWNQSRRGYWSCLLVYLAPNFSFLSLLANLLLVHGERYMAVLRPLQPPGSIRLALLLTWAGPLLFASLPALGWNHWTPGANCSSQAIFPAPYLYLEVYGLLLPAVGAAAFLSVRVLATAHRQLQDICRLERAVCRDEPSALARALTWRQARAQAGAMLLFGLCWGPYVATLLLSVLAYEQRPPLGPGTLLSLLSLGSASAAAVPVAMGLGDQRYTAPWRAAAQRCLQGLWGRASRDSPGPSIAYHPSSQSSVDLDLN

[4] = molecular target: T4, G-protein coupled bile acid receptor 1 (Homo sapiens) (UniProt Q8TDU6); experiment: Agonist activity at human TGR5 expressed in human HEK293 cells at 20 uM measured after 5.5 hrs by steady-glo luciferase assay relative to control; assay type: cell-based; conditions: filed as agonist
T4 sequence (whole entry): T3 sequence (Q8TDU6 whole entry)

[5] = molecular target: T3, G-protein coupled bile acid receptor 1; experiment: Agonist activity at TGR5 in human HEK293 cells assessed as increase in cAMP production; assay type: cell-based
[6] = molecular target: T1, Bile acid receptor; experiment: Agonist activity at human GST-tagged FXR LBD (193 to 472 residues) by FRET assay
[7] = molecular target: T4, G-protein coupled bile acid receptor 1 (Homo sapiens); experiment: Agonist activity at human TGR5 transfected in CHO cells assessed as increase in cAMP production at 100 nM relative to control; assay type: cell-based; conditions: filed as agonist
[8] = molecular target: T5, G-protein coupled bile acid receptor 1 (Mus musculus) (UniProt Q80SS6); experiment: In vivo agonist activity at TGR5 in C57/Bl6 mouse assessed as increase in GLP-1 secretion at 30 mg/kg, po relative to control; assay type: functional, organism-based
T5 sequence (whole entry): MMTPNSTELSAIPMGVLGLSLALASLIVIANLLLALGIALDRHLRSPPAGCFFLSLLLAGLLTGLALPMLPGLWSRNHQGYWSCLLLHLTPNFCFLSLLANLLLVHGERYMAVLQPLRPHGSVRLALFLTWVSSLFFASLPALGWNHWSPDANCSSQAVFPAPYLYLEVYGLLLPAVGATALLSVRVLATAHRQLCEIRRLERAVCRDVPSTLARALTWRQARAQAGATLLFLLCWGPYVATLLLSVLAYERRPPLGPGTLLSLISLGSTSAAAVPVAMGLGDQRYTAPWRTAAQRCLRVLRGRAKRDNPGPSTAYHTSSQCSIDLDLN

[9] = molecular target: T1, Bile acid receptor; experiment: Antagonist activity at FXR in human HepG2 cells in presence of CDCA by luciferase reporter assay; assay type: cell-based
[10] = Aqueous solubility of compound; assay type: physicochemical; conditions: buffer
[11] = Clearance in mouse liver microsomes; assay type: ADME, Microsome; conditions: liver microsomes, read-out: CLH
[12] = molecular target: T6, G-protein coupled bile acid receptor 1 (Mus musculus, UniProt Q80SS6); experiment: Agonist activity at mouse TGR5
T6 sequence (Q80SS6 whole entry): T5 sequence (whole entry)

[13] = molecular target: T3, G-protein coupled bile acid receptor 1; experiment: Agonist activity at human TGR5; conditions: read-out: EC50
[14] = Clearance in human liver microsomes; assay type: ADME, Microsome; conditions: liver microsomes, read-out: CLH
[15] = molecular target: T3, G-protein coupled bile acid receptor 1; experiment: Agonist activity at human TGR5 transfected in CHO-K1 cells assessed as increase in cAMP production; assay type: cell-based
[16] = molecular target: T1, Bile acid receptor; experiment: Antagonist activity at FXR (unknown origin) by HTFR assay
[17] = molecular target: T3, G-protein coupled bile acid receptor 1; experiment: Agonist activity at human TGR5 transfected in CHO cells assessed as increase in cAMP production; assay type: cell-based
[18] = molecular target: T1, Bile acid receptor; experiment: Antagonist activity at FXR in human HepG2 cells incubated for 24 hrs by dual luciferase reporter assay; assay type: cell-based
[19] = Binding affinity to FXR alpha LBD (unknown origin); design: species or system Homo sapiens

SMILES: CO[C@H](c1ccccc1)c1nc2cc(F)c(F)cc2n1C(C(=O)Nc1ccc(C(=O)O)cc1C)C1CCCCC1 (stereo partly specified)
- IC50 [1]: 20 nM

SMILES: O=C1COc2nccc(-c3ccccc3F)c2CN1Cc1cc(C(F)(F)F)cc(C(F)(F)F)c1
- Activity [2]: 360%

SMILES: Fc1ccccc1-c1ccncc1CN1C(c2ccco2)=NOC1c1cc(C(F)(F)F)cc(C(F)(F)F)c1Cl (stereo unspecified)
- EC50 [3]: 5.6 nM
- Activity [4]: 90%

SMILES: N#Cc1cc(F)ccc1N(C(=O)COc1cccc2cnccc12)c1ccc(F)cc1Cl
- EC50 [5]: 7370 nM

SMILES: O=C(O)c1ccc2cc(N3C4CCC3CC(OCc3c(-c5ccccc5OC(F)(F)F)noc3C3CC3)C4)ccc2c1 (stereo unspecified)
- EC50 [6]: 1 nM

SMILES: COc1ccc(C(C)(C)c2cnc(SCCOc3c(F)cccc3Cl)n2-c2ccc(F)cc2)cc1OC
- Activity [7]: 97%

SMILES: COc1ccc(C(C)(C)c2cnc(SCCNCc3cccnc3)n2-c2ccc(F)cc2)cc1OC
- Activity [8]: 320%
- Activity [7]: 129%

SMILES: C=C1[C@@H](O)CC[C@]2(C)C3CC[C@@]4(C)C(=C3CC[C@@H]12)CC[C@@H]4[C@H](C)CC[C@H](CC)C(C)C (stereo partly specified)
- IC50 [9]: 40000 nM

SMILES: O=C(Nc1nnn[nH]1)c1cc(Cl)c(Oc2ncccc2C(=O)N2CCN(C3CC3)c3ccccc32)cc1Cl
- solubility [10]: 535 µg/mL (≈ 970 µM)
- microsomal CLint [11]: 56 µL/min/mg
- EC50 [12]: 350 nM
- EC50 [13]: 76 nM
- microsomal CLint [14]: 56 µL/min/mg

SMILES: O=C(c1cc(C(F)(F)F)cc(C(F)(F)F)c1)N1CCCn2cccc2C1c1ccccc1 (stereo unspecified)
- EC50 [5]: < 10000 nM

SMILES: O=C(c1cccnc1Oc1cc(Cl)ccc1Cl)N1CCN(C2COC2)c2ccccc21
- solubility [10]: 14 µg/mL (≈ 30.7 µM)

SMILES: O=C(O)c1ccc2nc(N3CCC(OCc4c([C@H]5CCCC[C@@H]5C(F)(F)F)noc4C4CC4)CC3)sc2c1 (stereo in doubt; form 1)
- EC50 [6]: 64 nM

SMILES: Cc1c(Cl)cccc1OCCCC(=O)N1CCCc2c(-c3cnn(Cc4c(F)cc(C(=O)NCCS(=O)(=O)O)cc4Cl)c3)cccc21
- EC50 [15]: 23 nM

SMILES: CC(C)c1onc(-c2c(Cl)cccc2Cl)c1COc1ccn(Cc2ccc(-c3ccccc3C(=O)O)cc2)n1
- EC50 [16]: 6000 nM

SMILES: Cc1ccccc1[C@H](C/C(=N/O)c1ccc(=O)n(C)n1)c1ccc(Br)cc1
- EC50 [17]: 6 nM

SMILES: CN(C)c1cc(Cl)c(C(=O)N(Cc2ccccc2)c2ccc(O)c(C(C)(C)C)c2)c(Cl)c1
- IC50 [18]: 4500 nM
- Kd [19]: 8300 nM

SMILES: O=c1c2nccnc2nc(-c2ccc(F)cc2)n1CCc1ccc(Cl)cc1
- EC50 [5]: < 10000 nM

SMILES: Brc1ccc(CCNCc2cc3ccncc3nc2-c2ccsc2)cc1
- EC50 [5]: < 10000 nM

SMILES: Cc1ccccc1[C@H](C/C(=N/O)C1CCC(=O)N(C)C1)c1ccc(S(C)(=O)=O)cc1 (stereo partly specified)
- EC50 [17]: 29 nM

SMILES: Fc1cccc(F)c1-c1ccncc1CN1C(c2ccco2)=NOC1c1ccccc1 (stereo unspecified)
- EC50 [5]: < 100 nM

SMILES: CC(C)c1onc(-c2c(Cl)cccc2Cl)c1COc1ccn(-c2cccc(C(=O)O)c2)n1
- EC50 [16]: 80000 nM

SMILES: Fc1ccccc1-c1ccncc1CN1C(c2ccccc2)=NOC1c1cc(C(F)(F)F)cc(C(F)(F)F)c1 (stereo unspecified)
- EC50 [3]: 79 nM
- Activity [4]: 93%

SMILES: COc1ccc(C(C)(C)c2nnc(SCCOc3ccc(-n4cnc(-c5ccsc5)c4)cc3)n2-c2ccc(F)cc2)cc1OC
- Activity [7]: 147%
